Here are results for 3 molecules from patent publication US8288390B2, “Benzofuran derivatives” (Takeda Pharmaceutical Company Limited, priority 2009, dated 2012).

A word on the melting point: it is the temperature, or range, at which the solid turns liquid.

Structures are written as SMILES.

The subject of one data set is rat mixed glial culture. Nature of the data set: Activity of promoting neuronal neogenesis in rat mixed glial culture. It counts as cell-based. Particulars: Rattus norvegicus, 72 h, compound 1 μM + rhIGF-1 100 ng/ml, 3 days culture; absorbance at 450 nm (class III beta-tubulin antibody); control rhIGF-1 only = 100%; read-out: Increase Ratio of the Absorbance (% control). The method, then: From a three-day old SD rat, hippocampus and cerebral cortex were removed. By using a kit of dispersion liquid for neuronal cells (MB-X9901, manufactured by SUMITOMO BAKELITE CO., LTD.), cell suspension was prepared and then seeded on a 96-well plate coated with collagen Type I (4860-010, manufactured by Asahi Techno Glass Co., Ltd.) to 10^5 cells/well. Under the condition of 37° C. and 5% CO2, the cells were cultured for four days in a growth medium (D-MEM/F12 with 10% FBS, comprising PS).
After culturing, the medium was exchanged with a medium for differentiation (D-MEM/F12, comprising PS), added with rhIGF-1 (R&D Systems, 291-G1-250, final concentration of 100 ng/ml) and the compound to 1 μM, followed by further culture for three days. Cultured cells were fixed with 4% paraformaldehyde-PBS (manufactured by MUTO PURE CHEMICALS CO., LTD.) and subjected to membrane penetration using 0.1% Triton X-100 PBS, followed by blocking with Block Ace solution (UK-B80, manufactured by Dainippon Sumitomo Pharma Co., Ltd.). As a primary antibody, Anti-neuron-specific class III beta-tubulin antibody (R&D Systems, MAB1195, clone Tuj-1) was used after 1000× dilution. As a secondary antibody, Anti-Mouse Ig, HRP-Linked F (ab′) 2 Fragment Sheep (Amersham Biosciences, NA9310) was used after 10000× dilution. For washing process, the plate washer (BIO-TEK INSTRUMENTS ELX405) was used. For a chromogenic reaction, the reaction was carried out for 10 minutes using TMB Microwell Peroxidase Substrate System (Kirkegaard & Perry Laboratories, 50-76-00), followed by terminating the reaction according to the addition of 1M phosphoric acid. By using the plate reader (Labsystems Multiskan BICHROMATIC), absorbance at 450 nm was measured.
The absorbance for the case in which no compound is added (i.e., control, rhIGF-1 only) was 100%, and the increase ratio of the absorbance for the compound addition (i.e., compound+rhIGF-1) compared to the control was obtained as % control. Activity of the each compound for promoting neuronal differentiation that is measured according to the above method is summarized in Table 9 and Table 10.

In the next data set the test system is Akt protein. Description: Activity of inhibiting Akt protein degradation in rat mixed glial culture. It counts as cell-based. Particulars: compound 1 μM + rhIGF-1 100 ng/ml, 10 minutes at 37° C.; Akt calibrated with ERK; no addition = 100%, rhIGF-1 only = 0%. On the procedure: The mixed glial cells used in the Test example 1 were seeded on a 6-well plate coated with collagen Type I (manufactured by Asahi Techno Glass Co., Ltd.) to 4×10^6 cells/well. Under the condition of 37° C. and 5% CO2, the cells were cultured for four days in a growth medium (D-MEM/F12 with 10% FBS, comprising PS). After that, the medium was exchanged with a serum-free medium (D-MEM/F12, comprising PS) and the cells were subjected to starvation for 4 hours under the condition of 37° C. and 5% CO2.
Next, rhIGF-1 (R&D Systems, 291-G1-250, final concentration 100 ng/ml) and the compound were added to obtain 1 μM and reacted in a water bath incubator at 37° C. for 10 minutes. Culture supernatant was aspirated off, 150 μL of RIPA (50 mM Tris-HCl pH7.5, 5 mM EDTA, 100 mM NaCl, 30 mM NaF, 5 mM sodium diphosphate, 137 mg/l pepstatin A, 2.5 KIU/l aprotinin, 1% NP-40, 6 mM sodium deoxycholate, 1 μM microcystinLR, 1 μM Z-Leu-Leu-Nva-H(aldehyde), 48 μM leupeptin, 96 μM 4-(2-aminoethyl)benzenesulfonyl fluoride-HCl, 1 mM sodium orthovanadate) was added thereto, and the reaction was terminated. After the termination of the reaction, the cell lysate was recovered by using a cell scraper on ice. Finally, the cell lysate was centrifuged for 30 minutes at 15000 rpm and the supernatant was taken as a cell extract.
Proteins were recovered from the cell extract by using trichloroacetic acid, and quantified according to Lowry method. Standard curve was established with bovine serum albumin. Based on the measured values, each cell extract was diluted with RIPA to prepare it in constant concentration (10 μg/lane). SDS-PAGE was carried out under reducing condition using 10% acrylamide (45 mA, 1.5 hours). After transferring to a PVDF membrane (0.13 A, 1 hour), reaction with an antibody was carried out. As a primary antibody, Akt (Cell Signaling, 9272) and ERK (Santa Cruz, sc-94) were used with the dilution ratio of 1000. As a secondary antibody, HRP-labeled anti-rabbit antibody (NA9340V, manufactured by Amersham) was used with the dilution ratio of 12500. Then, using ImmunoStar reagent (291-55203, manufactured by Wako Pure Chemical Industries, Ltd.), X-ray film detection was carried out. Quantification of the results was carried out by using GS-800 Calibrated Densitometer (manufactured by BioRad), and then the band strength was converted into the numerals by multiplying the absorbance originating from bands of Akt and ERK-1&2 by the area. Akt was calibrated with ERK to give the numeral values.
Inhibitory activity on Akt degradation was expressed as inhibition ratio. Specifically, the case in which neither the compound nor rhIGF-1 was added (no addition) is 100% and the case in which only rhIGF-1 was added is 0%, and then with the value measured from compound+rhIGF-1, the inhibition ratio was obtained. Inhibition ratio(%)=[(compound+rhIGF-1)−(rhIGF-1)]÷[(no addition)−(rhIGF-1)]×100

The next data set relates to Tg2576 transgenic mice. Nature of the data set: Amelioration of cognitive function in novel object recognition test. The format is in vivo, mouse. Particulars: female Tg2576 mice, 10 mg/kg/day orally once a day for 3 weeks; retention 24 hours after training; recovery ratio vs vehicle Tg2576 and wild type. The method, then:
Female Tg2576 transgenic mice and wild-type littermates were used at 8-9 months old. All animals were housed in room maintained at 24±1° C. with a 12-h light/dark cycle. Lights on 7:00 a.m. Food chows (Oriental Yeast Co. Tokyo, Japan) and tap water were provided ad libitum.
The compounds (10 mg/kg/day) or vehicle (0.5% methylcellulose, Wako Pure Chemical Industries Limited, Osaka, Japan) was orally administered to the mice once a day for 3 weeks. After the gavages, the novel object recognition test was performed. The test procedure consisted of three sessions: habituation, training, and retention. In the training and retention sessions, observer was not informed of the group name or animal number (blind method). 4-5 mice were habituated to the box (30×30×30 high cm), with 30 minutes of exploration in the absence of objects (habituation session). During the training session, two objects were placed in the back corner of the box. A mouse was then placed at another corner of the box and the total time spent exploring the two objects was recorded for 5 minutes. During the retention session, animals were placed back into the same box 24 hours after the training session, in which one of the familiar objects used during training was replaced with a novel object. The animals were then allowed to explore freely for 5 minutes and the time spent exploring each object was recorded. Throughout the experiments, the objects were used in a counterbalanced manner in terms of an environmental effect, their physical complexity and emotional neutrality. A preference index (PI), a ratio of the amount of time spent exploring the novel object over the total time spent exploring both objects, was used to measure cognitive function. Furthermore, recovery ratio was calculated by following formula; [Recovery ratio]=[[PI of Tg2576 mice treated by each compound]−[PI of Tg2576 mice treated by vehicle]]/[[PI of wild type mice]−[PI of Tg2576 mice treated by vehicle]].×100(%)

`Cc1c(C)c(N2CCN(c3ccnc(Cl)n3)CC2)c(C)c2c1OC(C)(C)C2` [Example 82, 2-Chloro-4-[4-(2,2,4,6,7-pentamethyl-2,3-dihydro-1-benzofuran-5-yl)piperazin-1-yl]pyrimidine] displayed a melting point of 192 to 193 °C.

Take `COc1ccc(N2CCN(c3c(C)c(C)c4c(c3C)C[C@H](C)O4)CC2)cc1` [Example 22, 1-(4-Methoxyphenyl)-4-[(2S)-2,4,6,7-tetramethyl-2,3-dihydro-1-benzofuran-5-yl]piperazine]: the activity at 1 µM with rat mixed glial culture amounted to 389%. Besides, in the data set on Akt protein, the “Inhibition of Akt degradation (%)” value is reported as 73.9%. In addition, the “Preference index (% recovery)” value with Tg2576 transgenic mice was 76.9 % recovery.

Take `COc1ccc(N2CCN(c3c(C)c(C)c4c(c3C)CC(C)(C)O4)CC2)cc1` [Example 17, 1-(4-Methoxyphenyl)-4-(2,2,4,6,7-pentamethyl-2,3-dihydro-1-benzofuran-5-yl)piperazine]: the activity at 1 µM in the data set on rat mixed glial culture amounted to 216%. Besides, in the data set on Akt protein, the “Inhibition of Akt degradation (%)” value was 73.3%. Also, the “Preference index (% recovery)” value in the data set on Tg2576 transgenic mice is 70.9 % recovery.
